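Test compounds were applied to cells in 96-well plates for 48 hours at 5 doses. The concentration for 50% growth inhibition is given as GI50. TGI: concentration producing complete growth inhibition.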
Assays:
Test in all cases: inhibition of tumour cell growth, NCI panel, 48 h
786-0 renal = tested on: 786-0 renal
A498 renal = tested on: A498 renal
A549 NSCLC = tested on: A549 NSCLC
ACHN renal = tested on: ACHN renal
BT-549 breast = tested on: BT-549 breast
CAKI-1 renal = tested on: CAKI-1 renal
CCRF-CEM leukemia = tested on: CCRF-CEM leukemia
COLO 205 colon = tested on: COLO 205 colon
DU-145 prostate = tested on: DU-145 prostate
EKVX NSCLC = tested on: EKVX NSCLC
HCC-2998 colon = tested on: HCC-2998 colon
HCT-116 colon = tested on: HCT-116 colon
HCT-15 colon = tested on: HCT-15 colon
HL-60(TB) leukemia = tested on: HL-60(TB) leukemia
HOP-62 NSCLC = tested on: HOP-62 NSCLC
HOP-92 NSCLC = tested on: HOP-92 NSCLC
HS 578T breast = tested on: HS 578T breast
HT29 colon = tested on: HT29 colon
IGROV1 ovarian = tested on: IGROV1 ovarian
K-562 leukemia = tested on: K-562 leukemia
KM12 colon = tested on: KM12 colon
LOX IMVI melanoma = tested on: LOX IMVI melanoma
M14 melanoma = tested on: M14 melanoma
MALME-3M melanoma = tested on: MALME-3M melanoma
MCF7 breast = tested on: MCF7 breast
MDA-MB-231 breast = tested on: MDA-MB-231 breast
MDA-MB-435 = tested on: MDA-MB-435
MOLT-4 leukemia = tested on: MOLT-4 leukemia
NCI-H226 lung = tested on: NCI-H226 lung
NCI-H23 lung = tested on: NCI-H23 lung
NCI-H460 lung = tested on: NCI-H460 lung
NCI-H522 lung = tested on: NCI-H522 lung
NCI/ADR-RES ovarian = tested on: NCI/ADR-RES ovarian
OVCAR-3 ovarian = tested on: OVCAR-3 ovarian
OVCAR-4 ovarian = tested on: OVCAR-4 ovarian
OVCAR-5 ovarian = tested on: OVCAR-5 ovarian
OVCAR-8 ovarian = tested on: OVCAR-8 ovarian
PC-3 prostate = tested on: PC-3 prostate
RPMI-8226 leukemia = tested on: RPMI-8226 leukemia
RXF 393 renal = tested on: RXF 393 renal
SF-268 CNS = tested on: SF-268 CNS
SF-295 CNS = tested on: SF-295 CNS
SF-539 CNS = tested on: SF-539 CNS
SK-MEL-2 melanoma = tested on: SK-MEL-2 melanoma
SK-MEL-28 melanoma = tested on: SK-MEL-28 melanoma
SK-MEL-5 melanoma = tested on: SK-MEL-5 melanoma
SK-OV-3 ovarian = tested on: SK-OV-3 ovarian
SN12C renal = tested on: SN12C renal
SNB-19 CNS = tested on: SNB-19 CNS
SNB-75 CNS = tested on: SNB-75 CNS
SR leukemia = tested on: SR leukemia
SW-620 colon = tested on: SW-620 colon
T-47D breast = tested on: T-47D breast
TK-10 renal = tested on: TK-10 renal
U251 CNS = tested on: U251 CNS
UACC-257 melanoma = tested on: UACC-257 melanoma
UACC-62 melanoma = tested on: UACC-62 melanoma
UO-31 renal = tested on: UO-31 renal

Structure (SMILES): COC(=O)c1c2c(c(C)[n+]([O-])c1C)C(=O)C=C(NCc1ccc(F)c(F)c1)C2=O
- GI50 (786-0 renal): 1350 nM
- TGI (786-0 renal): 3.58 µM
- GI50 (A498 renal): 931 nM
- TGI (A498 renal): 2430 nM
- GI50 (A549 NSCLC): 480 nM
- TGI (A549 NSCLC): 2200 nM
- GI50 (ACHN renal): 572 nM
- TGI (ACHN renal): 2010 nM
- GI50 (BT-549 breast): 1120 nM
- TGI (BT-549 breast): 2420 nM
- GI50 (CAKI-1 renal): 313 nM
- TGI (CAKI-1 renal): 2130 nM
- GI50 (CCRF-CEM leukemia): 409 nM
- TGI (CCRF-CEM leukemia): 2470 nM
- GI50 (COLO 205 colon): 257 nM
- TGI (COLO 205 colon): 713 nM
- GI50 (DU-145 prostate): 1060 nM
- TGI (DU-145 prostate): 2280 nM
- GI50 (EKVX NSCLC): 685 nM
- TGI (EKVX NSCLC): 2260 nM
- GI50 (HCC-2998 colon): 359 nM
- TGI (HCC-2998 colon): 1430 nM
- GI50 (HCT-116 colon): 256 nM
- TGI (HCT-116 colon): 902 nM
- GI50 (HCT-15 colon): 235 nM
- TGI (HCT-15 colon): 1440 nM
- GI50 (HL-60(TB) leukemia): 302 nM
- TGI (HL-60(TB) leukemia): 1020 nM
- GI50 (HOP-62 NSCLC): 860 nM
- TGI (HOP-62 NSCLC): 2500 nM
- GI50 (HOP-92 NSCLC): 1560 nM
- TGI (HOP-92 NSCLC): 3.61 µM
- GI50 (HS 578T breast): 1890 nM
- TGI (HS 578T breast): 6.17 µM
- GI50 (HT29 colon): 304 nM
- TGI (HT29 colon): 3.17 µM
- GI50 (IGROV1 ovarian): 360 nM
- TGI (IGROV1 ovarian): 1680 nM
- GI50 (K-562 leukemia): 74.5 nM
- GI50 (KM12 colon): 280 nM
- TGI (KM12 colon): 1710 nM
- GI50 (LOX IMVI melanoma): 82.5 nM
- TGI (LOX IMVI melanoma): 1390 nM
- GI50 (M14 melanoma): 274 nM
- TGI (M14 melanoma): 1380 nM
- GI50 (MALME-3M melanoma): 139 nM
- TGI (MALME-3M melanoma): 301 nM
- GI50 (MCF7 breast): 255 nM
- TGI (MCF7 breast): 891 nM
- GI50 (MDA-MB-231 breast): 251 nM
- TGI (MDA-MB-231 breast): 1830 nM
- GI50 (MDA-MB-435): 131 nM
- TGI (MDA-MB-435): 270 nM
- GI50 (MOLT-4 leukemia): 588 nM
- TGI (MOLT-4 leukemia): 2120 nM
- GI50 (NCI-H226 lung): 1440 nM
- TGI (NCI-H226 lung): 3.27 µM
- GI50 (NCI-H23 lung): 498 nM
- TGI (NCI-H23 lung): 2590 nM
- GI50 (NCI-H460 lung): 450 nM
- TGI (NCI-H460 lung): 1790 nM
- GI50 (NCI-H522 lung): 286 nM
- TGI (NCI-H522 lung): 1350 nM
- GI50 (NCI/ADR-RES ovarian): 313 nM
- TGI (NCI/ADR-RES ovarian): 1650 nM
- GI50 (OVCAR-3 ovarian): 256 nM
- TGI (OVCAR-3 ovarian): 766 nM
- GI50 (OVCAR-4 ovarian): 177 nM
- TGI (OVCAR-4 ovarian): 666 nM
- GI50 (OVCAR-5 ovarian): 1140 nM
- TGI (OVCAR-5 ovarian): 2490 nM
- GI50 (OVCAR-8 ovarian): 291 nM
- TGI (OVCAR-8 ovarian): 1130 nM
- GI50 (PC-3 prostate): 279 nM
- TGI (PC-3 prostate): 2420 nM
- GI50 (RPMI-8226 leukemia): 783 nM
- TGI (RPMI-8226 leukemia): 3.23 µM
- GI50 (RXF 393 renal): 1050 nM
- TGI (RXF 393 renal): 2390 nM
- GI50 (SF-268 CNS): 1070 nM
- TGI (SF-268 CNS): 3.32 µM
- GI50 (SF-295 CNS): 437 nM
- TGI (SF-295 CNS): 1590 nM
- GI50 (SF-539 CNS): 487 nM
- TGI (SF-539 CNS): 1670 nM
- GI50 (SK-MEL-2 melanoma): 874 nM
- TGI (SK-MEL-2 melanoma): 2370 nM
- GI50 (SK-MEL-28 melanoma): 840 nM
- TGI (SK-MEL-28 melanoma): 2430 nM
- GI50 (SK-MEL-5 melanoma): 167 nM
- TGI (SK-MEL-5 melanoma): 308 nM
- GI50 (SK-OV-3 ovarian): 1860 nM
- TGI (SK-OV-3 ovarian): 4.06 µM
- GI50 (SN12C renal): 294 nM
- TGI (SN12C renal): 1030 nM
- GI50 (SNB-19 CNS): 1080 nM
- TGI (SNB-19 CNS): 2290 nM
- GI50 (SNB-75 CNS): 1630 nM
- TGI (SNB-75 CNS): 2990 nM
- GI50 (SR leukemia): 373 nM
- TGI (SR leukemia): 4.06 µM
- GI50 (SW-620 colon): 254 nM
- TGI (SW-620 colon): 1360 nM
- GI50 (T-47D breast): 127 nM
- TGI (T-47D breast): 1020 nM
- GI50 (TK-10 renal): 2060 nM
- TGI (TK-10 renal): 4.82 µM
- GI50 (U251 CNS): 458 nM
- TGI (U251 CNS): 1720 nM
- GI50 (UACC-257 melanoma): 225 nM
- TGI (UACC-257 melanoma): 657 nM
- GI50 (UACC-62 melanoma): 61.8 nM
- TGI (UACC-62 melanoma): 612 nM
- GI50 (UO-31 renal): 1110 nM
- TGI (UO-31 renal): 2350 nM
